According to ChEMBL document CHEMBL1128242, “Polyiodinated triglyceride analogs as potential computed tomography imaging agents for the liver” (J Med Chem, 1995):

What was measured:
Rattus norvegicus [1] = experiment: Analysis of lipid-soluble radioactivity in liver 0.5 hour after iv administration of [125I]-labeled 2-Oleoyl 1,3-disubstituted Triacylglycerols and represented as % CHCl3/CH3OH from rat; type: ADME, organism-based; details: in vivo
Rattus norvegicus [2] = experiment: Distribution of radioactivity was determined in kidney at 3h after intravenous administration of [125I]-labeled 2-oleoglycerol 1,3-Bis-[omega-(3-amino-2,4,6-triiodophenyl)alkanoates] in rats; type: ADME, organism-based; details: in vivo
Rattus norvegicus [3] = experiment: Distribution of radioactivity was determined in spleen at 3h after intravenous administration of [125I]-labeled 2-oleoglycerol 1,3-Bis-[omega-(3-amino-2,4,6-triiodophenyl)alkanoates] in rats; type: ADME, organism-based; details: in vivo
Rattus norvegicus [4] = experiment: Distribution of radioactivity was determined in liver at 24 hr after intravenous administration of [125I]-labeled 2-oleoglycerol 1,3-Bis-[omega-(3-amino-2,4,6-triiodophenyl)alkanoates] in rats; type: ADME, organism-based; details: in vivo
Rattus norvegicus [5] = experiment: Polyacrylamide Gel Electrophoresis (PAGE) to determined the concentration of high density lipoprotein (HDL) in rats after iv administration of [125I]-labeled 2-Oleolyl 1,3-disubstituted triglycerols was reported; type: ADME, organism-based; details: in vivo
Rattus norvegicus [6] = experiment: Analysis of lipid-soluble radioactivity in plasma 24 hour after iv administration of [125I]-labeled 2-Oleoyl 1,3-disubstituted Triacylglycerols and represented as % CHCl3/CH3OH from rat; type: ADME, organism-based; details: in vivo
Rattus norvegicus [7] = experiment: Distribution of radioactivity was determined in thyroid at 24 hr after intravenous administration of [125I]-labeled 2-oleoglycerol 1,3-Bis-[omega-(3-amino-2,4,6-triiodophenyl)alkanoates] in rats; type: ADME, organism-based, Thyroid gland; details: in vivo
Rattus norvegicus [8] = experiment: Distribution of radioactivity was determined in spleen at 24 hr after intravenous administration of 1,3-Disubstituted Triacylglycerols in rats; type: ADME, organism-based; details: in vivo
Rattus norvegicus [9] = experiment: Distribution of radioactivity was determined in liver at 3h after intravenous administration of 1,3-Disubstituted Triacylglycerols in rats; type: ADME, organism-based; details: in vivo
Rattus norvegicus [10] = experiment: Distribution of radioactivity was determined in spleen at 24 hr after intravenous administration of [125I]-labeled 2-oleoglycerol 1,3-Bis-[omega-(3-amino-2,4,6-triiodophenyl)alkanoates] in rats; type: ADME, organism-based; details: in vivo
Rattus norvegicus [11] = experiment: Distribution of radioactivity was determined in thyroid at 3h after intravenous administration of [125I]-labeled 2-oleoglycerol 1,3-Bis-[omega-(3-amino-2,4,6-triiodophenyl)alkanoates] in rats; type: ADME, organism-based, Thyroid gland; details: in vivo
Rattus norvegicus [12] = experiment: Distribution of radioactivity was determined in blood at 3h after intravenous administration of [125I]-labeled 2-oleoglycerol 1,3-Bis-[omega-(3-amino-2,4,6-triiodophenyl)alkanoates] in rats; type: ADME, organism-based; details: in vivo
Rattus norvegicus [13] = experiment: Analysis of lipid-soluble radioactivity in liver 24 hour after iv administration of [125I]-labeled 2-Oleoyl 1,3-disubstituted Triacylglycerols expressed as %parent compound (by TLC with authentic [125I]-labeled standard) from rat; type: ADME, organism-based; details: in vivo
Rattus norvegicus [14] = experiment: Distribution of radioactivity was determined in liver at 48 hr after intravenous administration of 1,3-Disubstituted Triacylglycerols in rats; type: ADME, organism-based; details: in vivo
Rattus norvegicus [15] = experiment: Distribution of radioactivity was determined in liver at 30 min after intravenous administration of [125I]-labeled 2-oleoglycerol 1,3-Bis-[omega-(3-amino-2,4,6-triiodophenyl)alkanoates] in rats; type: ADME, organism-based; details: in vivo, 0.5 h
Rattus norvegicus [16] = experiment: Distribution of radioactivity was determined in blood at 30 min after intravenous administration of [125I]-labeled 2-oleoglycerol 1,3-Bis-[omega-(3-amino-2,4,6-triiodophenyl)alkanoates] in rats; type: ADME, organism-based; details: in vivo, 0.5 h
Rattus norvegicus [17] = experiment: Distribution of radioactivity was determined in lung at 3h after intravenous administration of [125I]-labeled 2-oleoglycerol 1,3-Bis-[omega-(3-amino-2,4,6-triiodophenyl)alkanoates] in rats; type: ADME, organism-based; details: in vivo
Rattus norvegicus [18] = experiment: Analysis of lipid-soluble radioactivity in plasma 0.5 hour after iv administration of [125I]-labeled 2-Oleoyl 1,3-disubstituted Triacylglycerols and represented as % CHCl3/CH3OH from rat; type: ADME, organism-based; details: in vivo
Rattus norvegicus [19] = experiment: Distribution of radioactivity was determined in kidney at 24 hr after intravenous administration of [125I]-labeled 2-oleoglycerol 1,3-Bis-[omega-(3-amino-2,4,6-triiodophenyl)alkanoates] in rats; type: ADME, organism-based; details: in vivo
Rattus norvegicus [20] = experiment: Distribution of radioactivity was determined in lung at 24 hr after intravenous administration of [125I]-labeled 2-oleoglycerol 1,3-Bis-[omega-(3-amino-2,4,6-triiodophenyl)alkanoates] in rats; type: ADME, organism-based; details: in vivo
Rattus norvegicus [21] = experiment: Distribution of radioactivity was determined in liver at 24 hr after intravenous administration of 1,3-Disubstituted Triacylglycerols in rats; type: ADME, organism-based; details: in vivo
Rattus norvegicus [22] = experiment: Polyacrylamide Gel Electrophoresis (PAGE) to determined the concentration of below albumin(BA) in rats after iv administration of [125I]-labeled 2-Oleolyl 1,3-disubstituted triglycerols was reported; type: ADME, organism-based; details: in vivo
Rattus norvegicus [23] = experiment: Analysis of lipid-soluble radioactivity in liver 0.5 hour after iv administration of [125I]-labeled 2-Oleoyl 1,3-disubstituted Triacylglycerols expressed as %parent compound (by TLC with authentic [125I]-labeled standard) from rat; type: ADME, organism-based; details: in vivo
Rattus norvegicus [24] = experiment: Distribution of radioactivity was determined in liver at 30 min after intravenous administration of 1,3-Disubstituted Triacylglycerols in rats; type: ADME, organism-based; details: in vivo, 0.5 h
Rattus norvegicus [25] = experiment: Distribution of radioactivity was determined in plasma at 30 min after intravenous administration of [125I]-labeled 2-oleoglycerol 1,3-Bis-[omega-(3-amino-2,4,6-triiodophenyl)alkanoates] in rats; type: ADME, organism-based; details: in vivo, 0.5 h
Rattus norvegicus [26] = experiment: Distribution of radioactivity was determined in thyroid at 30 min after intravenous administration of [125I]-labeled 2-oleoglycerol 1,3-Bis-[omega-(3-amino-2,4,6-triiodophenyl)alkanoates] in rats; type: ADME, organism-based, Thyroid gland; details: in vivo, 0.5 h
Rattus norvegicus [27] = experiment: Distribution of radioactivity was determined in heart at 3h after intravenous administration of [125I]-labeled 2-oleoglycerol 1,3-Bis-[omega-(3-amino-2,4,6-triiodophenyl)alkanoates] in rats; type: ADME, organism-based; details: in vivo
Rattus norvegicus [28] = experiment: Distribution of radioactivity was determined in spleen at 3h after intravenous administration of 1,3-Disubstituted Triacylglycerols in rats; type: ADME, organism-based; details: in vivo
Rattus norvegicus [29] = experiment: Distribution of radioactivity was determined in spleen at 48 hr after intravenous administration of 1,3-Disubstituted Triacylglycerols in rats; type: ADME, organism-based; details: in vivo
Rattus norvegicus [30] = experiment: Distribution of radioactivity was determined in blood at 48 hr after intravenous administration of 1,3-Disubstituted Triacylglycerols in rats; type: ADME, organism-based; details: in vivo
Rattus norvegicus [31] = experiment: Distribution of radioactivity was determined in heart at 30 min after intravenous administration of [125I]-labeled 2-oleoglycerol 1,3-Bis-[omega-(3-amino-2,4,6-triiodophenyl)alkanoates] in rats; type: ADME, organism-based; details: in vivo, 0.5 h
Rattus norvegicus [32] = experiment: Analysis of lipid-soluble radioactivity in liver 24 hour after iv administration of [125I]-labeled 2-Oleoyl 1,3-disubstituted Triacylglycerols and represented as % CHCl3/CH3OH from rat; type: ADME, organism-based; details: in vivo
Rattus norvegicus [33] = experiment: Polyacrylamide Gel Electrophoresis (PAGE) to determined the concentration of albumin(ALB) in rats after iv administration of [125I]-labeled 2-Oleolyl 1,3-disubstituted triglycerols was reported; type: ADME, organism-based; details: in vivo
Rattus norvegicus [34] = experiment: Distribution of radioactivity was determined in heart at 24 after intravenous administration of [125I]-labeled 2-oleoglycerol 1,3-Bis-[omega-(3-amino-2,4,6-triiodophenyl)alkanoates] in rats; type: ADME, organism-based; details: in vivo
Rattus norvegicus [35] = experiment: Distribution of radioactivity was determined in lung at 30 min after intravenous administration of [125I]-labeled 2-oleoglycerol 1,3-Bis-[omega-(3-amino-2,4,6-triiodophenyl)alkanoates] in rats; type: ADME, organism-based; details: in vivo, 0.5 h

Structure (SMILES)	Lipid-soluble radioactivity (Rattus norvegicus [1])	Distribution of radioactivity (Rattus norvegicus [2]) [% dose/g]	Distribution of radioactivity (Rattus norvegicus [3]) [% dose/g]	Distribution of radioactivity (Rattus norvegicus [4]) [% dose/g]	Radioactivity (Rattus norvegicus [5]) [%]	Lipid-soluble radioactivity (Rattus norvegicus [6])	Distribution of radioactivity (Rattus norvegicus [7]) [% dose/g]	Distribution of radioactivity (Rattus norvegicus [8]) [% dose/organ]	Distribution of radioactivity (Rattus norvegicus [9]) [% dose/organ]	Distribution of radioactivity (Rattus norvegicus [10]) [% dose/g]	Distribution of radioactivity (Rattus norvegicus [11]) [% dose/g]	Distribution of radioactivity (Rattus norvegicus [12]) [% dose/g]	Lipid-soluble radioactivity (Rattus norvegicus [13])	Distribution of radioactivity (Rattus norvegicus [14]) [% dose/organ]	Distribution of radioactivity (Rattus norvegicus [15]) [% dose/g]	Distribution of radioactivity (Rattus norvegicus [16]) [% dose/g]	Distribution of radioactivity (Rattus norvegicus [17]) [% dose/g]	Lipid-soluble radioactivity (Rattus norvegicus [18])	Distribution of radioactivity (Rattus norvegicus [19]) [% dose/g]	Distribution of radioactivity (Rattus norvegicus [20]) [% dose/g]	further results
CCCCCCCC/C=C/CCCCCCCC(=O)OC(COC(=O)CCCCCCc1c(I)cc(I)c(N)c1I)COC(=O)CCCCCCc1c(I)cc(I)c(N)c1I	56	0.18	15.3	1.1	0.3	15.3	6.53	0.8	45.8	1.43	1.69	0.28	0	4.4	7.23	0.59	0.34	36.1	0.22	0.29	Distribution of radioactivity (Rattus norvegicus [21]): 9.6 % dose/organ; Radioactivity (Rattus norvegicus [22]): 5.1%; Lipid-soluble radioactivity (Rattus norvegicus [23]): 91.9; Radioactivity per organ (Rattus norvegicus [24]): 67.7 % dose/organ; Distribution of radioactivity (Rattus norvegicus [25]): 0.83 % dose/g; Distribution of radioactivity (Rattus norvegicus [26]): 0.31 % dose/g; Distribution of radioactivity (Rattus norvegicus [27]): 0.22 % dose/g; Distribution of radioactivity (Rattus norvegicus [28]): 8.2 % dose/organ; Distribution of radioactivity (Rattus norvegicus [29]): 0.3 % dose per organ; Distribution of radioactivity (Rattus norvegicus [30]): 0.4 % dose per organ; Distribution of radioactivity (Rattus norvegicus [31]): 0.55 % dose/g; Lipid-soluble radioactivity (Rattus norvegicus [32]): 30.2; Radioactivity (Rattus norvegicus [33]): 66.3%; Distribution of radioactivity (Rattus norvegicus [34]): 0.1 % dose/g; Distribution of radioactivity (Rattus norvegicus [35]): 0.66 % dose/g
CCCCCCCC/C=C/CCCCCCCC(=O)OC(COC(=O)CCCCCc1c(I)cc(I)c(N)c1I)COC(=O)CCCCCc1c(I)cc(I)c(N)c1I	91.3	0.21	23.5	4.2	7	80.6	5.13	5.8	66	10.4	0.91	0.2	97.9	22.4	7.01	0.38	0.21	89.9	0.25	0.26	Distribution of radioactivity (Rattus norvegicus [21]): 34.9 % dose/organ; Radioactivity (Rattus norvegicus [22]): 0.6%; Lipid-soluble radioactivity (Rattus norvegicus [23]): 96.8; Radioactivity per organ (Rattus norvegicus [24]): 66.8 % dose/organ; Distribution of radioactivity (Rattus norvegicus [25]): 0.65 % dose/g; Distribution of radioactivity (Rattus norvegicus [26]): 0.54 % dose/g; Distribution of radioactivity (Rattus norvegicus [27]): 0.2 % dose/g; Distribution of radioactivity (Rattus norvegicus [28]): 11.3 % dose/organ; Distribution of radioactivity (Rattus norvegicus [29]): 3.1 % dose per organ; Distribution of radioactivity (Rattus norvegicus [30]): 0.8 % dose per organ; Distribution of radioactivity (Rattus norvegicus [31]): 0.23 % dose/g; Lipid-soluble radioactivity (Rattus norvegicus [32]): 90.3; Radioactivity (Rattus norvegicus [33]): 15%; Distribution of radioactivity (Rattus norvegicus [34]): 0.07 % dose/g; Distribution of radioactivity (Rattus norvegicus [35]): 0.26 % dose/g
